One test relates to MCF7. The test can be described thus: Growth inhibition of human MCF7 cells incubated for 48 hrs by MTT reagent based ELISA reader analysis. The note with it: MCF7, 48 h. The format is functional, cell-based.
Test [1] deals with PDX27454. The test can be described thus: Antitumor activity against human PDX27454 cells xenografted in SCID mouse model assessed as reduction in tumor volume at 8 mg/kg,po administrated once per week for 3 weeks. Format: functional, organism-based.
The test system of another test is A549. Nature of the test: Growth inhibition of human A549 cells incubated for 48 hrs by MTT reagent based ELISA reader analysis. The format is functional, cell-based. The following applies: A549, 48 h.
Test [2] has as its system HCT-116. Nature of the test: Induction of apoptosis in human HCT-116 cells assessed as increase in intracellular ROS level incubated for 48 hrs by DCFH-DA staining based fluorescence microscopy. The format is functional, cell-based.
The subject of test [3] is PDX14244. The test can be described thus: Antitumor activity against human PDX14244 cells xenografted in SCID mouse model assessed as reduction in tumor volume at 8 mg/kg,po administrated once per week for 3 weeks. Format: functional, organism-based.
In test [4] the test system is HCT-116. Nature of the test: Growth inhibition of human HCT-116 cells incubated for 48 hrs by MTT reagent based ELISA reader analysis. Format: functional, cell-based. The note with it: HCT-116, 48 h.
The test system of test [5] is PDX27454. The test can be described thus: Antitumor activity against human PDX27454 cells xenografted in SCID mouse model assessed as reduction in tumor volume at 2 mg/kg,po administrated once per week for 3 weeks. The format is functional, organism-based.
In the next test the test system is HepG2. Nature of the test: Growth inhibition of human HepG2 cells incubated for 48 hrs by MTT reagent based ELISA reader analysis. Format: functional, cell-based. The note with it: HepG2, 48 h.
For test [6], the system named is PDX14244. Nature of the test: Antitumor activity against human PDX14244 cells xenografted in SCID mouse model assessed as reduction in tumor volume at 2 mg/kg,po administrated once per week for 3 weeks. The format is functional, organism-based.
A further test concerns HeLa. Nature of the test: Growth inhibition of human HeLa cells incubated for 48 hrs by MTT reagent based ELISA reader analysis. Format: functional, cell-based.
Test [7] deals with HCT-116. The test can be described thus: Induction of apoptosis in human HCT-116 cells assessed as downregulation of Survivin protein expression incubated for 48 hrs by Western blotting analysis. Format: functional, cell-based.
The subject of test [8] is HCT-116. The test can be described thus: Induction of apoptosis in human HCT-116 cells assessed as downregulation of XIAP protein expression incubated for 48 hrs by Western blotting analysis. The format is functional, cell-based.
Test [9] addresses T1, DNA topoisomerase 1 (Homo sapiens) (UniProt P11387).
T1 sequence (whole entry): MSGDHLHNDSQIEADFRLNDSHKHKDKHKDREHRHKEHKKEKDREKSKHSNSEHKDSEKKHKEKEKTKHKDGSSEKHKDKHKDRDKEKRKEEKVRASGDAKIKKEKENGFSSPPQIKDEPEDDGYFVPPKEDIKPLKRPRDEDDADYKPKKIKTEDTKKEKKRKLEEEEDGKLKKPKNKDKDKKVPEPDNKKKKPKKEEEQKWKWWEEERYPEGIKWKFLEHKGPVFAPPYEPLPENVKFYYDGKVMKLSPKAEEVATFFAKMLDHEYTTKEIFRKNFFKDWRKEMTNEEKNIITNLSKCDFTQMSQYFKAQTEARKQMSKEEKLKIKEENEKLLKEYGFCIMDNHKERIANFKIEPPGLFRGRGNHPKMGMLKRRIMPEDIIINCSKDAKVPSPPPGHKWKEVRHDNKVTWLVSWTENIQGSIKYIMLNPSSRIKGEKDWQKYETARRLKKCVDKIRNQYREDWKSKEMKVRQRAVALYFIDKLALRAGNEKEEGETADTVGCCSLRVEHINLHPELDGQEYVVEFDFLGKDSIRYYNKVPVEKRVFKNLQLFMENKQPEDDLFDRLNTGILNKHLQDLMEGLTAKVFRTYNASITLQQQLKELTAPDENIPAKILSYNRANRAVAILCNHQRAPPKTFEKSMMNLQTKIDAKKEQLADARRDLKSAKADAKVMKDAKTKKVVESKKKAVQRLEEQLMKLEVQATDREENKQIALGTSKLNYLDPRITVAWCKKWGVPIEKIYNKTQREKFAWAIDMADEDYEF
Nature of the test: Inhibition of topoisomerase 1 (unknown origin) assessed as relaxation of supercoiled plasmid pBR322 DNA at 25 to 100 uM incubated for 30 mins by ethidium bromide staining based agarose gel electrophoresis. The following applies: dose 25-100 µM.

Test [10] concerns HCT-116. The test can be described thus: Induction of apoptosis in human HCT-116 cells assessed as downregulation of MCL-1 protein expression incubated for 48 hrs by Western blotting analysis. Format: functional, cell-based.
Test [11] concerns HCT-116. The test can be described thus: Inhibition of cell migration in human HCT-116 cells assessed as scratch repair rate at 5 nM incubated for 48 hrs by inverted phase-contrast microscopic analysis. The format is functional. Set-up: scale not given: the % may be the effect or the level left.
The subject of test [12] is HCT-116. The test can be described thus: Induction of cell cycle arrest in human HCT-116 cells assessed as accumulation of cells at G2/M phase at 2.5 to 10 nM incubated for 48 hrs by Annexin V-FITC/PI staining based flow cytometry assay. The format is functional. The following applies: dose 2.5-10 nM.
In test [13] the test system is HCT-116. The test can be described thus: Inhibition of cell migration in human HCT-116 cells assessed as intercellular distance at 5 nM incubated for 24 hrs by inverted phase-contrast microscopic analysis (reference value: 1 +/- 0.2 millimeter). The format is functional.
For test [14], the system named is HCT-116. The test can be described thus: Induction of apoptosis in human HCT-116 cells assessed as increase in intracellular ROS level at 10 to 1000 nM incubated for 12 hrs by DCFH-DA staining based fluorescence microscopy. Format: functional, cell-based. The note with it: dose 10-1000 nM.
Test [15] concerns HCT-116. The test can be described thus: Induction of cell cycle arrest in human HCT-116 cells assessed as accumulation of cells at S phase at 2.5 to 10 nM incubated for 48 hrs by Annexin V-FITC/PI staining based flow cytometry assay. The format is functional. The note with it: dose 2.5-10 nM.
Test [16] has as its system HCT-116. Nature of the test: Induction of apoptosis in human HCT-116 cells assessed as increase in intracellular ROS level at 10 to 1000 nM incubated for 4 to 8 hrs by DCFH-DA staining based fluorescence microscopy. The note with it: dose 10-1000 nM, time 4-8 hrs. Format: functional, cell-based.
Test [17] concerns HCT-116. The test can be described thus: Induction of apoptosis in human HCT-116 cells at 2.5 to 10 nM incubated for 48 hrs by Annexin V-FITC/PI staining based flow cytometry assay. Format: functional, cell-based. The following applies: dose 2.5-10 nM.
Test [18] concerns HCT-116. The test can be described thus: Inhibition of cell migration in human HCT-116 cells assessed as intercellular distance at 5 nM incubated for 48 hrs by inverted phase-contrast microscopic analysis. The format is functional.
Test [19] concerns HCT-116. The test can be described thus: Inhibition of cell migration in human HCT-116 cells assessed as intercellular distance at 5 nM by inverted phase-contrast microscopic analysis (reference value: 2.5 +/- 0.7 millimeter). The format is functional.

pIC50: −log10 of the molar value. Active and inactive are the calls of the source. No cut-off for these calls is given here.

Regarding `CC[C@@]1(O)C(=O)OCc2c1cc1n(c2=O)Cc2cc3c(-c4ccc([Si](C)(C)C)cc4)c4c(cc3nc2-1)OCO4`, the pIC50 in the test with MCF7 is 6.98; in the test on A549, 7.07; in the test with HCT-116 [4], 6.60; with HepG2, 6.75; with HeLa, 6.79. The result with PDX27454 [1], in the test with PDX14244 [3], with PDX27454 [5] and in the test on PDX14244 [6] was Active. In addition, in the test with HCT-116 [2], the Activity result was “Dose-Dependent Effect”.

Take `CC[C@@]1(O)C(=O)OCc2c1cc1n(c2=O)Cc2cc3c(-c4ccc(OC(C)C)cc4)c4c(cc3nc2-1)OCO4`: the pIC50 in the test on MCF7 is 6.22; in the test with A549, 6.85; with HCT-116 [4] it was 6.02; in the test with HepG2, 6.04; in the test on HeLa, 6.82. The result in the test on PDX27454 [1], in the test on PDX14244 [3], with PDX27454 [5] and in the test on PDX14244 [6] was Active. In addition, the Activity entry with HCT-116 [2] was “Dose-Dependent Effect”.

For the compound `CC[C@@]1(O)C(=O)OCc2c1cc1n(c2=O)Cc2cc3c(-c4cccc(C)c4)c4c(cc3nc2-1)OCO4`, the pIC50 is 6.88 in the test on MCF7; < 6.00 in the test with A549; 6.32 in the test with HCT-116 [4]; 6.70 in the test on HepG2; 7.49 in the test on HeLa. The outcome in the test on PDX27454 [1], with PDX14244 [3], in the test on PDX27454 [5] and in the test with PDX14244 [6] was Active.

`CC[C@@]1(O)C(=O)OCc2c1cc1n(c2=O)Cc2c-1nc1cc3c(cc1c2-c1ccc(C(F)(F)F)cc1)OCO3`: the result in the test on HCT-116 [7], in the test on PDX27454 [1], with HCT-116 [8], with HCT-116 [10], in the test on PDX14244 [3] and with HCT-116 [12] was Active. The outcome in the test on PDX27454 [5], in the test with HCT-116 [14], in the test with HCT-116 [15], with HCT-116 [16], in the test on PDX14244 [6] and in the test with HCT-116 [17] was Active. Also, the pIC50 in the test on MCF7 was 7.33; in the test with A549, 7.10; with HCT-116 [4], 7.39; with HepG2 it was 7.06; in the test on HeLa, 7.31. In addition, the “Topoisomerase 1 inhibition” value in [9] was “Active”. In addition, the Activity entry with HCT-116 [2] was “Dose-Dependent Effect”; in the test on HCT-116 [11], 69.2%; with HCT-116 [13], 1.5 mm; with HCT-116 [18], 0.8 mm; in the test on HCT-116 [19], 2.6 mm.

Turning to `CC[C@@]1(O)C(=O)OCc2c1cc1n(c2=O)Cc2cc3c(-c4cc(OC)cc(OC)c4)c4c(cc3nc2-1)OCO4`, the pIC50 with MCF7 was 7.53; in the test with A549, 6.36; in the test on HCT-116 [4] it was 7.65; with HepG2, 7.55; in the test with HeLa, 7.48.

Take `CCSc1ccc(-c2c3c(cc4nc5c(cc24)Cn2c-5cc4c(c2=O)COC(=O)[C@]4(O)CC)OCO3)cc1`: the pIC50 in the test on MCF7 is < 6.00; with A549 it was 6.68; in the test on HCT-116 [4], 6.21; in the test on HepG2, 6.40; with HeLa, < 6.00.

As to `CC[C@@]1(O)C(=O)OCc2c1cc1n(c2=O)Cc2c-1nc1cc3c(cc1c2-c1ccc2c(c1)OCO2)OCO3`, the pIC50 was 7.45 with MCF7; 7.07 with A549; 7.44 in the test on HCT-116 [4]; 7.21 with HepG2; 6.32 in the test on HeLa.

For `CC[C@@]1(O)C(=O)OCc2c1cc1n(c2=O)Cc2cc3c(-c4ccc(C(F)(F)F)cc4)c4c(cc3nc2-1)OCO4`, the pIC50 in the test on A549 is 6.10; with HCT-116 [4], 6.03; in the test with HepG2 it was < 6.00; in the test with HeLa, < 6.00. The Activity result in the test on HCT-116 [2] was “Dose-Dependent Effect”.

In the case of `CC[C@@]1(O)C(=O)OCc2c1cc1n(c2=O)Cc2c-1nc1cc3c(cc1c2-c1cccc(C)c1)OCO3`, the pIC50 in the test on MCF7 is 7.41; in the test on A549, 6.94; in the test on HCT-116 [4], 7.66; in the test on HepG2, 6.87; in the test on HeLa, 6.84.

Turning to `CCOc1ccc(-c2c3c(nc4cc5c(cc24)OCO5)-c2cc4c(c(=O)n2C3)COC(=O)[C@]4(O)CC)cc1`, the pIC50 with MCF7 was 7.19; in the test with A549, 7.21; in the test on HCT-116 [4] it was 6.65; in the test on HepG2, < 6.00; in the test on HeLa, 7.20.

For the compound `CC[C@@]1(O)C(=O)OCc2c1cc1n(c2=O)Cc2cc3c(-c4cccc(OC(C)C)c4)c4c(cc3nc2-1)OCO4`, the pIC50 with MCF7 is 6.83; in the test with A549 it was 6.83; in the test with HCT-116 [4], 6.74; with HepG2 it was 6.79; in the test on HeLa, 6.79.

As for `CCCCc1ccc(-c2c3c(nc4cc5c(cc24)OCO5)-c2cc4c(c(=O)n2C3)COC(=O)[C@]4(O)CC)cc1`, the pIC50 is 7.22 in the test with MCF7; 7.26 with A549; 6.29 in the test on HCT-116 [4]; < 6.00 with HepG2; 6.94 in the test on HeLa.

Source of the values: ChEMBL document CHEMBL5376003, “Structure-Activity Relationship of FL118 Platform Position 7 Versus Position 9-Derived Compounds and Their Mechanism of Action and Antitumor Activity” (J Med Chem, 2023).
